Test results taken from patent US20190298621A1, “METHODS OF TREATMENT OF THE DENTAL PULP AND FILLING ROOT CANALS USING ANTI INFLAMMATORY RINSE SOLUTION AND FILLING COMPOSITION” (DENTSPLY SIRONA Inc., priority 2018, published 2019).
Each block holds one molecule with its values, some of them ahead of it.

Assay: Anti-inflammatory agent solubility in solvents
Format: physicochemical
Details: for Solvent (anti-inflammatory agent solubility in solvents): solvent in which the agent is miscible, ambient conditions
Experimental: An anti-inflammatory rinse solution was prepared by mixing anti-inflammatory agent in a solvent in which they are miscible in a vial under ambient conditions as shown in Table 2.

Solvent (anti-inflammatory agent solubility in solvents): Ethanol
Compound: O=C(/C=C/c1ccccc1)c1ccccc1 [Chalcone]

solubility in water: partially soluble in water
Compound: CC(C)Cc1ccc(C(C)C(=O)O)cc1 (stereo not shown) [Ibuprofen]

Second part, the molecule before the results:

Compound: C=CCc1ccc(O)c(OC)c1 [Eugenol]
Solvent (anti-inflammatory agent solubility in solvents): Ethanol
solubility in water: partially soluble in water

Compound: Cc1c(C)c2c(c(C)c1O)CC[C@@](C)(CCC[C@H](C)CCC[C@H](C)CCCC(C)C)O2 [Vitamin E, α-tocopherol]
Solvent (anti-inflammatory agent solubility in solvents): Ethanol
solubility in water: insoluble in water

Compound: OC[C@@H](O)[C@H](O)[C@@H](O)CO [Xylitol]
Solvent (anti-inflammatory agent solubility in solvents): Water
